According to PubChem BioAssay (NCI):
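Cells were grown in 96-well plates and exposed to each compound for 48 hours at five concentrations; endpoints were interpolated linearly between bracketing concentrations, or set to the highest concentration if not reached. Here, GI50 denotes the concentration required for 50% inhibition of growth. TGI: total growth inhibition.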

Legend:
Assay in all cases: NCI tumour cell line growth inhibition, 48 h
786-0 renal = tested on: 786-0 renal
A498 renal = tested on: A498 renal
A549 NSCLC = tested on: A549 NSCLC
ACHN renal = tested on: ACHN renal
BT-549 breast = tested on: BT-549 breast
CAKI-1 renal = tested on: CAKI-1 renal
CCRF-CEM leukemia = tested on: CCRF-CEM leukemia
COLO 205 colon = tested on: COLO 205 colon
DU-145 prostate = tested on: DU-145 prostate
EKVX NSCLC = tested on: EKVX NSCLC
HCC-2998 colon = tested on: HCC-2998 colon
HCT-116 colon = tested on: HCT-116 colon
HCT-15 colon = tested on: HCT-15 colon
HL-60(TB) leukemia = tested on: HL-60(TB) leukemia
HOP-62 NSCLC = tested on: HOP-62 NSCLC
HOP-92 NSCLC = tested on: HOP-92 NSCLC
HS 578T breast = tested on: HS 578T breast
HT29 colon = tested on: HT29 colon
IGROV1 ovarian = tested on: IGROV1 ovarian
KM12 colon = tested on: KM12 colon
LOX IMVI melanoma = tested on: LOX IMVI melanoma
M14 melanoma = tested on: M14 melanoma
MALME-3M melanoma = tested on: MALME-3M melanoma
MCF7 breast = tested on: MCF7 breast
MDA-MB-231 breast = tested on: MDA-MB-231 breast
MDA-MB-435 = tested on: MDA-MB-435
MOLT-4 leukemia = tested on: MOLT-4 leukemia
NCI-H226 lung = tested on: NCI-H226 lung

## Cc1nc2cc(-n3c(-c4ccc(F)cc4)nc4ccccc4c3=O)ccc2n1Cc1ccccc1
786-0 renal
  GI50: 1.86 µM
  TGI: 3.62 µM
A498 renal
  GI50: 2.23 µM
  TGI: 11.6 µM
A549 NSCLC
  GI50: 2.02 µM
  TGI: 4.66 µM
ACHN renal
  GI50: 2.05 µM
  TGI: 4.63 µM
BT-549 breast
  GI50: 1.71 µM
  TGI: 3.48 µM
CAKI-1 renal
  GI50: 1.89 µM
  TGI: 4.51 µM
CCRF-CEM leukemia
  GI50: 8.34 µM
  TGI: > 100 µM
COLO 205 colon
  GI50: 2.11 µM
  TGI: 5.1 µM
DU-145 prostate
  GI50: 2.6 µM
  TGI: 6.95 µM
EKVX NSCLC
  GI50: 6.28 µM
  TGI: 49.9 µM
HCC-2998 colon
  GI50: > 100 µM
  TGI: > 100 µM
HCT-116 colon
  GI50: 1.57 µM
  TGI: 3.39 µM
HCT-15 colon
  GI50: 2.94 µM
  TGI: 11.6 µM
HL-60(TB) leukemia
  GI50: 13 µM
  TGI: > 100 µM
HOP-62 NSCLC
  GI50: 2.44 µM
  TGI: 6.98 µM
HOP-92 NSCLC
  GI50: 2.47 µM
  TGI: 8.25 µM
HS 578T breast
  GI50: 2.68 µM
  TGI: 8.6 µM
HT29 colon
  GI50: 2.23 µM
  TGI: 4.71 µM
IGROV1 ovarian
  GI50: 5.9 µM
  TGI: 31.2 µM
KM12 colon
  GI50: 3.12 µM
  TGI: 15.7 µM
LOX IMVI melanoma
  GI50: 1.97 µM
  TGI: 4.59 µM
M14 melanoma
  GI50: 2.13 µM
  TGI: 4.62 µM
MALME-3M melanoma
  GI50: 2.36 µM
  TGI: 5.36 µM
MCF7 breast
  GI50: 2.24 µM
  TGI: 5.56 µM
MDA-MB-231 breast
  GI50: 1.91 µM
  TGI: 5.09 µM
MDA-MB-435
  GI50: 1.98 µM
  TGI: 4.21 µM
MOLT-4 leukemia
  GI50: 3.52 µM
  TGI: > 100 µM
NCI-H226 lung
  GI50: 2.02 µM
  TGI: 6.51 µM
